Test results taken from the supplement of paper PMC10307832.

Columns and labels:
Test in all cases: relative viability (nuclei count vs DMSO), 5 days (fraction); higher = more cells survive
NCI-H2126 = test system: NCI-H2126
In short: (§1)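 Nuclei were stained with Hoechst during a one-step fixation (final 0.05% Triton X-100, 1% formaldehyde, 1 ug/ml Hoechst) carried out 5 days after dosing, then counted on 4× images. The cells, lung cancer lines in 1536-well plates, had been dosed by pin tool the day after seeding with one drug alone or a fixed anchor-drug dose plus five library-drug doses (not always all listed) in √10 steps. Relative viability is the nuclei count in treated wells divided by that in vehicle wells, and each value is the median of duplicate plates.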

NCI-H1666 = test system: NCI-H1666
In short: as §1

LCLC-103H = test system: LCLC-103H
In short: as §1

NCI-H2405 = test system: NCI-H2405
In short: as §1

NCI-H2342 = test system: NCI-H2342
In short: as §1

NCI-H322M = test system: NCI-H322M
In short: as §1

SW 1573 = test system: SW 1573
In short: as §1

EMC-BAC-2 = test system: EMC-BAC-2
In short: as §1

SW 900 = test system: SW 900
In short: as §1

HCC-827 = test system: HCC-827
In short: as §1

EPLC-272H = test system: EPLC-272H
In short: as §1

LK-2 = test system: LK-2
In short: as §1

PC-14 = test system: PC-14
In short: as §1

NCI-H23 = test system: NCI-H23
In short: as §1

ChaGo-K-1 = test system: ChaGo-K-1
In short: as §1

SK-LU-1 = test system: SK-LU-1
In short: as §1

RERF-LC-KJ = test system: RERF-LC-KJ
In short: as §1

NCI-H1975 = test system: NCI-H1975
In short: as §1

EKVX = test system: EKVX
In short: as §1

LU99A = test system: LU99A
In short: as §1

HCC-78 = test system: HCC-78
In short: as §1

Compound: CC(=O)O[C@@]12CO[C@@H]1C[C@H](O)[C@@]1(C)C(=O)[C@H](O)C3=C(C)[C@@H](OC(=O)[C@H](O)[C@@H](NC(=O)OC(C)(C)C)c4ccccc4)C[C@@](O)([C@@H](OC(=O)c4ccccc4)[C@H]21)C3(C)C [Docetaxel] + CC(=O)Nc1cccc(-n2c(=O)n(C3CC3)c(=O)c3c(Nc4ccc(I)cc4F)n(C)c(=O)c(C)c32)c1 [Trametinib] (partner 0.02 µM)
- relative viability (NCI-H2126; first compound 0.0002 µM): 0.543
- relative viability (NCI-H2126; first compound 0.000632 µM): 0.471
- relative viability (NCI-H2126; first compound 0.002 µM): 0.403
- relative viability (NCI-H2126; first compound 0.006325 µM): 0.31
- relative viability (NCI-H1666; first compound 0.0002 µM): 0.846
- relative viability (NCI-H1666; first compound 0.000632 µM): 0.695
- relative viability (NCI-H1666; first compound 0.002 µM): 0.645
- relative viability (NCI-H1666; first compound 0.006325 µM): 0.771
- relative viability (NCI-H1666; first compound 0.02 µM): 0.521
- relative viability (LCLC-103H; first compound 0.0002 µM): 0.675
- relative viability (LCLC-103H; first compound 0.000632 µM): 0.697
- relative viability (LCLC-103H; first compound 0.002 µM): 0.727
- relative viability (LCLC-103H; first compound 0.006325 µM): 0.782
- relative viability (LCLC-103H; first compound 0.02 µM): 0.592
- relative viability (NCI-H2405; first compound 0.0002 µM): 0.597
- relative viability (NCI-H2405; first compound 0.000632 µM): 0.618
- relative viability (NCI-H2405; first compound 0.002 µM): 0.531
- relative viability (NCI-H2405; first compound 0.006325 µM): 0.456
- relative viability (NCI-H2405; first compound 0.02 µM): 0.266
- relative viability (NCI-H2342; first compound 0.0002 µM): 0.898
- relative viability (NCI-H2342; first compound 0.000632 µM): 0.836
- relative viability (NCI-H2342; first compound 0.002 µM): 0.567
- relative viability (NCI-H2342; first compound 0.006325 µM): 0.672
- relative viability (NCI-H2342; first compound 0.02 µM): 0.483
- relative viability (NCI-H322M; first compound 0.0002 µM): 0.554
- relative viability (NCI-H322M; first compound 0.000632 µM): 0.507
- relative viability (NCI-H322M; first compound 0.002 µM): 0.441
- relative viability (NCI-H322M; first compound 0.006325 µM): 0.524
- relative viability (NCI-H322M; first compound 0.02 µM): 0.441
- relative viability (SW 1573; first compound 0.0002 µM): 0.467
- relative viability (SW 1573; first compound 0.000632 µM): 0.307
- relative viability (SW 1573; first compound 0.002 µM): 0.165
- relative viability (SW 1573; first compound 0.006325 µM): 0.192
- relative viability (SW 1573; first compound 0.02 µM): 0.108
- relative viability (EMC-BAC-2; first compound 0.0002 µM): 0.874
- relative viability (EMC-BAC-2; first compound 0.000632 µM): 0.76
- relative viability (EMC-BAC-2; first compound 0.002 µM): 0.554
- relative viability (EMC-BAC-2; first compound 0.006325 µM): 0.476
- relative viability (EMC-BAC-2; first compound 0.02 µM): 0.385
- relative viability (SW 900; first compound 0.0002 µM): 0.802
- relative viability (SW 900; first compound 0.000632 µM): 0.287
- relative viability (SW 900; first compound 0.002 µM): 0.232
- relative viability (SW 900; first compound 0.02 µM): 0.163
- relative viability (HCC-827; first compound 0.0002 µM): 0.545
- relative viability (HCC-827; first compound 0.000632 µM): 0.524
- relative viability (HCC-827; first compound 0.002 µM): 0.376
- relative viability (HCC-827; first compound 0.006325 µM): 0.272
- relative viability (HCC-827; first compound 0.02 µM): 0.189
- relative viability (EPLC-272H; first compound 0.0002 µM): 0.32
- relative viability (EPLC-272H; first compound 0.000632 µM): 0.276
- relative viability (EPLC-272H; first compound 0.006325 µM): 0.136
- relative viability (EPLC-272H; first compound 0.02 µM): 0.0951
- relative viability (LK-2; first compound 0.0002 µM): 0.683
- relative viability (LK-2; first compound 0.000632 µM): 0.528
- relative viability (LK-2; first compound 0.002 µM): 0.304
- relative viability (LK-2; first compound 0.006325 µM): 0.187
- relative viability (LK-2; first compound 0.02 µM): 0.136
- relative viability (PC-14; first compound 0.0002 µM): 0.648
- relative viability (PC-14; first compound 0.000632 µM): 0.679
- relative viability (PC-14; first compound 0.002 µM): 0.0905
- relative viability (PC-14; first compound 0.006325 µM): 0.0687
- relative viability (PC-14; first compound 0.02 µM): 0.0257
- relative viability (NCI-H23; first compound 0.0002 µM): 0.377
- relative viability (NCI-H23; first compound 0.000632 µM): 0.294
- relative viability (NCI-H23; first compound 0.002 µM): 0.278
- relative viability (NCI-H23; first compound 0.006325 µM): 0.195
- relative viability (NCI-H23; first compound 0.02 µM): 0.132
- relative viability (ChaGo-K-1; first compound 0.0002 µM): 0.871
- relative viability (ChaGo-K-1; first compound 0.000632 µM): 0.815
- relative viability (ChaGo-K-1; first compound 0.002 µM): 0.443
- relative viability (ChaGo-K-1; first compound 0.006325 µM): 0.323
- relative viability (ChaGo-K-1; first compound 0.02 µM): 0.157
- relative viability (SK-LU-1; first compound 0.0002 µM): 0.518
- relative viability (SK-LU-1; first compound 0.000632 µM): 0.468
- relative viability (SK-LU-1; first compound 0.002 µM): 0.411
- relative viability (SK-LU-1; first compound 0.006325 µM): 0.281
- relative viability (SK-LU-1; first compound 0.02 µM): 0.223
- relative viability (RERF-LC-KJ; first compound 0.0002 µM): 0.767
- relative viability (RERF-LC-KJ; first compound 0.000632 µM): 0.816
- relative viability (RERF-LC-KJ; first compound 0.002 µM): 0.39
- relative viability (RERF-LC-KJ; first compound 0.006325 µM): 0.217
- relative viability (RERF-LC-KJ; first compound 0.02 µM): 0.142
- relative viability (NCI-H1975; first compound 0.0002 µM): 0.386
- relative viability (NCI-H1975; first compound 0.000632 µM): 0.263
- relative viability (NCI-H1975; first compound 0.002 µM): 0.241
- relative viability (NCI-H1975; first compound 0.006325 µM): 0.167
- relative viability (NCI-H1975; first compound 0.02 µM): 0.148
- relative viability (EKVX; first compound 0.0002 µM): 0.343
- relative viability (EKVX; first compound 0.000632 µM): 0.358
- relative viability (EKVX; first compound 0.002 µM): 0.185
- relative viability (EKVX; first compound 0.006325 µM): 0.286
- relative viability (EKVX; first compound 0.02 µM): 0.131
- relative viability (LU99A; first compound 0.0002 µM): 0.53
- relative viability (LU99A; first compound 0.000632 µM): 0.561
- relative viability (LU99A; first compound 0.002 µM): 0.346
- relative viability (LU99A; first compound 0.006325 µM): 0.3
- relative viability (HCC-78; first compound 0.0002 µM): 0.751
- relative viability (HCC-78; first compound 0.000632 µM): 0.73
- relative viability (HCC-78; first compound 0.002 µM): 0.502
- relative viability (HCC-78; first compound 0.006325 µM): 0.446
- relative viability (HCC-78; first compound 0.02 µM): 0.371
